Earlier results as cited in patent US20160038532A1, “Treatment of Multiple Sclerosis With Combination of Laquinimod and Glatiramer Acetate” (TEVA PHARMACEUTICAL INDUSTRIES, LTD., priority 2011, published 2016).

Columns and labels:
[1] = test system: Multiple Sclerosis; settings: two phase III trials; cited from earlier work
[2] = in vivo; cited from earlier work
[3] = test system: multiple sclerosis (MS); settings: daily subcutaneous injections, 20 mg/injection; cited from earlier work

Row | Compound | safety and tolerability profile [1] | oral bioavailability [2] | effect on relapse rates, progression of disability, new MRI lesions [3]
1 | CCN(C(=O)c1c(O)c2c(Cl)cccc2n(C)c1=O)c1ccccc1 [laquinimod] | favorable safety and tolerability profile | high oral bioavailability | –
2 | L-glutamic acid polymer with L-alanine, L-lysine and L-tyrosine, acetate (salt) [GA] | – | – | reduce relapse rates
